Measurements published in PMC10102027, “Helquat dyes targeting G-quadruplexes as a new class of anti-HIV-1 inhibitors” (Scientific Reports, 2023).
Entries after “also recorded” stand apart in the source; their conditions may differ.

Legend:
[1] = system: G-quadruplexes in the HIV-1 LTR (G4 LTR FRET oligonucleotide); assay: FRET melting assay; assay type: binding; conditions: 2 μM compound, 0.2 μM oligonucleotide; for Tm: 100 mM KCl, mean and standard error, three experiments; for ΔTm: average Tm minus average Tm of PBS
NL4-3 HIV-1 = assay: Modified time-of-addition assay; assay type: cell-based; conditions: 10 μM, MT-4 cells, RT activity 31 h post-infection; for activity by time of addition: added 2-24 h post-infection
Procedure: There are indications that G4s in the HIV-1 promoter might play roles in both RNA and DNA forms. G4s present in the LTR region of HIV-1 genomic RNA could influence reverse transcription. By contrast, G4s in the promoter region of the integrated HIV-1 provirus might regulate the transcription of viral genome and of viral mRNAs and thus the expression of viral proteins and the production of new virions - both the later stages of the HIV-1 life cycle. A modified time-of-addition assay was performed with an emphasis on the later stages of the HIV-1 life cycle, such as reverse transcription, integration and provirus expression. The tested compounds were added at several time points, but the initial time point was 2 h post-infection to eliminate their virucidal/adsorption/entry effects. Several inhibitors of the individual steps of the HIV-1 life cycle were used as controls to resolve the post-entry steps of the HIV-1 life cycle. MT-4 cells were infected with NL4-3 HIV-1 and the infection was allowed to proceed for 1 h. Subsequently, the unbound virions were washed out, and the cells were resuspended in fresh media. The compounds were first added 2 h after the infection. The culture media were harvested 31 h later and the number of released virions was monitored through the activity of reverse transcriptase in the culture media (Fig. 4).
MT-4 cells were infected with NL4-3 HIV-1 at a MOI of 1. After 1 h, the cells were washed, seeded (100,000 cells/well) and incubated at 37 °C. […] HIV-1 production was determined 31 h post-infection by measuring RT activity in the supernatant.
(§1) RT assay. The reverse transcriptase (RT) activity in a cell-free supernatant was assessed by an α-32P RT assay. Briefly, the RT activity in the culture medium, which corresponded to the amount of HIV-1, was used to produce a DNA copy of an RNA template by extending a complementary oligo dT DNA primer with radiolabelled nucleotides. A reaction mixture containing 50 mM Tris-HCl pH 7.8, 75 mM KCl, 2 mM DTT, 5 mM MgCl2 and 0.5% NP-40 (all Sigma-Aldrich), 5 µg per ml of poly (rA)-poly (dT) (The Midlan Certified Reagent Company) with 1 µl 10-mCi/ml [α-32P]dTTP (American Radiolabeled Chemicals) per ml, and the tested sample was incubated at 37°C for two hours, after which 10 µl were spotted on DEAE blotting paper (PerkinElmer) and air-dried. After five washes with SSC buffer (0.15 M NaCl, 0.015 M sodium citrate) and three additional washes with 85% ethanol, the blotting paper was exposed to Phosphoscreen overnight, which was scanned on a Typhoon 9410 Phosphorimager instrument (GE Healthcare). The intensity of the dots was analysed by the ImageQuant software (GE Healthcare).

HIV-1 [2] = assay: Replication assay (RT activity in supernatant); assay type: cell-based; conditions: 10 µM, compound added 1 h after infection of MT-4 cells, RT activity 5 days after infection
Procedure: (§2) To address virion binding and entry in a competitive setting, we performed an adsorption assay where test compounds and virions were added to MT-4 cells simultaneously and were washed out after 2 h of incubation. In parallel, we performed a replication assay where MT-4 cells were infected with HIV-1 and the tested compounds were added 1 h later. In both cases, the infection was evaluated by measuring reverse transcriptase activity in a cell-free supernatant 5 days after the infection (Fig. 3). As controls, PBS (phosphate-buffered saline) and inhibitors of different HIV-1 life-cycle steps were used: AMD (AMD3100), an inhibitor of gp120 attachment to CXCR4 receptors of the target cell, thus preventing HIV-1 adsorption and entry; AZT (azidothymidine), an inhibitor of reverse transcriptase; and RAL (raltegravir), an integrase inhibitor.
(§3) MT-4 cells were seeded in 80 µl of the Roswell Park Memorial Institute (RPMI) medium in the amount of 2 × 10^5 cells per well of a 96-well plate, and 10 µl of the virus stock were immediately added with the final multiplicity of infection (MOI) of 0.05. For a replication assay, the infected cells were incubated at 37 °C for 1 h before the addition of compounds being tested (10 µM final concentration) and subsequently cultivated at 37 °C for another 5 days. For an adsorption test, by contrast, the compounds (10 µM final concentration) were added simultaneously with the virus, and after 2 h of incubation, the cells were washed three times with PBS to remove the compounds and unbound virions; after the addition of 100 µl of the RPMI medium, the cells were cultivated at 37 °C for 5 days. Five days post-infection, aliquots of virus-containing cell-free supernatants were harvested and analysed by reverse transcriptase (RT) assay (described in the Supplementary Information). The experiments were performed as biological replicates where the sample size for each condition was n = 3.
as §1

[3] = system: HIV-1 LTR G-quadruplex template (G4 LTR Stop); assay: Taq polymerase stop assay; assay type: biochemical; conditions: for Fold change, all regions (A, B and C) together: normalized against control; for Fold change: A (G-patch 6′) / Fold change: B (G-patch 6) / Fold change: C (G-patch 5): 2.5 µM, pixel intensity normalized against negative control; for G-quadruplex stabilization / stop band pattern: Taq polymerase pausing at G-patches, 1-5 μM
Procedure: To address specifically the positions in the HIV-1 promoter region that are affected by the binding of G4-stabilizing agents, we performed a Taq polymerase stop assay. The wild-type LTR oligonucleotide was extended at the […] to include a primer-annealing region and used as a template for a single-cycle Taq polymerase reaction. The elongation of the radioactively labelled primer was performed at 45 °C in the presence or absence of the tested compounds and controls.
A Taq polymerase stop assay was carried out as described in a previous study. Briefly, the primer (G4 LTR primer, Supplementary Table S1) was 5′-end labelled with [γ-^32P]ATP using T4 polynucleotide kinase at 37 °C for 30 min. The T4 polynucleotide kinase was then inactivated by incubation at 65 °C for 5 min. The radioactively labelled primer was column-purified and stored at − 20 °C for further use. The labelled primer (1.7 pmol) was annealed to the template (2.1 pmol) in the LiCaco buffer and extended with the Go Taq DNA polymerase (2U/reaction, Promega) at 45 °C for 45 min. Samples were incubated with G-quadruplex-ligands at 45 °C for 45 min before DNA polymerase addition. The reactions were stopped by a denaturing solution (80% formamide, 10% glycerol, 0.025% xylen cyanol, 0.025% bromphenol blue and 10 mM EDTA pH 8); extension products were separated on 15% denaturing gel and visualized by phosphorimaging. The pixel intensity of bands was calculated using 1D gel analysis in ImageQuant TL software version 8.1 (GE HealthCare) after automatic background subtraction by Rolling Ball method.

HIV-1 [4] = assay: Adsorption assay (RT activity in supernatant); assay type: cell-based; conditions: 10 µM, compound and virions added to MT-4 cells simultaneously, washed out after 2 h, RT activity 5 days after infection
Procedure: as §2, §3, §1

Compound: COc1ccc2ccccc2c1/C=C/c1cc[n+]2c(c1)-c1c(c(C)c(C)c3c1-c1cc(/C=C/c4c(OC)ccc5ccccc45)cc[n+]1CC3)CC2 [Compound 15]
- Tm [1]: 70 ± 1.0 °C
- ΔTm [1]: 19 °C
- latest time of administration post-infection with retained antiviral activity (NL4-3 HIV-1): ≤ 5 h
- activity by time of addition (NL4-3 HIV-1): mainly manifested when these compounds are administered before or early during reverse transcription
- effect on viral replication (HIV-1 [2]): significantly impairing viral replication
- Fold change, all regions (A, B and C) together ([3]; 1 μM): 1.6
- Fold change, all regions (A, B and C) together ([3]; 2.5 μM): 2.4
- Fold change: A (G-patch 6′) [3]: 2.8
- Fold change: B (G-patch 6) [3]: 2.5
- Fold change: C (G-patch 5) [3]: 1.8
- Fold change, all regions (A, B and C) together ([3]; 5 μM): 2.5
- G-quadruplex stabilization / stop band pattern [3]: strong stop bands also in G-patch 6′; also recorded: exhibit their stabilization effect even at 1 μM concentration
- effect on virus adsorption (HIV-1 [4]): minimal or no effect on virus adsorption

Compound: C(=C\c1cc(/C=C/c2ccc3c(c2)CCO3)[n+]2c(c1)-c1c(ccc3c1-c1cccc[n+]1CCC3)CCC2)/c1ccc2c(c1)CCO2 [Compound 14]
- Tm [1]: 64 ± 0.2 °C
- ΔTm [1]: 13 °C
- latest time of administration post-infection with retained antiviral activity (NL4-3 HIV-1): up to 8 h
- activity by time of addition (NL4-3 HIV-1): preserved their activity at later time points
- effect on viral replication (HIV-1 [2]): significantly impairing viral replication
- Fold change, all regions (A, B and C) together ([3]; 1 μM): 1.2
- Fold change, all regions (A, B and C) together ([3]; 2.5 μM): 1.7
- Fold change: A (G-patch 6′) [3]: 1.4
- Fold change: B (G-patch 6) [3]: 2.0
- Fold change: C (G-patch 5) [3]: 1.5
- Fold change, all regions (A, B and C) together ([3]; 5 μM): 1.8
- G-quadruplex stabilization / stop band pattern [3]: stop bands only in G-patch 6
- effect on virus adsorption (HIV-1 [4]): minimal or no effect on virus adsorption

Compound: Cn1cc(/C=C/c2cc(/C=C/c3cn(C)c4ccccc34)[n+]3c(c2)-c2c(ccc4c2-c2cccc[n+]2CCC4)CCC3)c2ccccc21 [Compound 12]
- Tm [1]: 79 ± 0.2 °C
- ΔTm [1]: 28 °C
- latest time of administration post-infection with retained antiviral activity (NL4-3 HIV-1): up to 8 h
- activity by time of addition (NL4-3 HIV-1): preserved their activity at later time points
- effect on viral replication (HIV-1 [2]): significantly impairing viral replication
- Fold change, all regions (A, B and C) together ([3]; 1 μM): 1.4
- Fold change, all regions (A, B and C) together ([3]; 2.5 μM): 1.9
- Fold change: A (G-patch 6′) [3]: 1.9
- Fold change: B (G-patch 6) [3]: 2.1
- Fold change: C (G-patch 5) [3]: 1.5
- Fold change, all regions (A, B and C) together ([3]; 5 μM): 1.8
- G-quadruplex stabilization / stop band pattern [3]: exhibit their stabilization effect even at 1 μM concentration; also recorded: stop bands only in G-patch 6
- effect on virus adsorption (HIV-1 [4]): minimal or no effect on virus adsorption
